Test results taken from patent US9977309B2, “Electrophoretic fluid” (Merck Patent GmbH, priority 2013, dated 2018).

Assay: Saturation solubility of dyes in decane
Format: physicochemical

| SMILES | Saturation wt % in decane [wt %] |
| --- | --- |
| CCCCCCCCCCCCCCCCCCN(CCCCCCCCCCCCCCCCCC)c1cc(NC(C)=O)c(/N=N/c2c(C#N)cc([N+](=O)[O-])cc2C#N)cc1OC [Dye 1] | 0.003 |
| CCCCCCCCN(CCCCCCCC)c1ccc(/N=N/c2snc(C)c2C#N)c(NC(C)=O)c1 [Dye 4] | 0.19 |
| CCCCCCCCCCCCCCc1ccc(/N=N/c2c(C)c(C#N)c(=O)n(CC(CC)CCCC)c2O)cc1 (stereo not drawn) [Dye 5] | 1.03 |
| CCCCCCCCCCCCCCc1ccc(/N=N/c2c(C)cc(=O)n(CC(CC)CCCC)c2O)cc1 (stereo not drawn) [Dye 6] | 3.72 |
| CCCCc1ccc(/N=N/c2ccc(N(CCCC)CCCC)cc2)cc1 [Dye 7] | 9.95 |
| CCCCCCCCN(CCCCCCCC)c1ccc(/N=N/c2ccc([N+](=O)[O-])cc2)c(C)c1 [Dye 8] | 10.50 |
